In one test the target is T1, E. coli LRS (Escherichia coli, UniProt P07813).
T1 construct: made in house
The test can be described thus: Leucine tRNA synthetase (LRS) enzyme inhibition assay. It is filed as biochemical. The procedure: (§1) (Test Example 1) Leucine tRNA Synthetase (LRS) Enzyme Inhibition Assay [IC50]
(§2) E. coli and P. aeruginosa LRS enzymes were cloned, expressed and purified in-house. The IC50 values were determined by using following assay protocol.
(§3) Test compounds were diluted in milli-Q water. 5 μL (microliter) of test compound dilution was mixed with 20 μL of reaction mixture consisting of 100 millimolar Tris (Trizma base from Sigma), 120 millimolar potassium chloride (Sigma), […] magnesium chloride (Sigma), 50 millimolar dithiothreitol, 50 mg/mL E. coli tRNA (Roche), 150 micromolar leucine (Sigma), 0.5 microcurie of ^3H Leucine (Amersham) and 20 μL of appropriate dilution of LRS enzyme, incubate in shaker at about 30° C. for 20 minutes. The reaction was started by adding 5 μL of 40 millimolar ATP (Sigma) and incubated on shaker at the same temperature further for 20 minutes. The reaction was quenched with 150 μL ice cold trichloroacetic acid (10%). The content of each well was transferred to 96 well GF/C plates (from Pall), and washed with 150 μL of trichloroacetic acid (5%) using vacuum manifold (from Pall). Plates were dried and read using Microbeta Wallac liquid scintillation counters after adding 100 μL of scintillation cocktail (Perkin Elmer's OptiPhase ‘SuperMix’) to each well. IC50 was calculated with respect to enzyme control after subtracting background (No enzyme control) using Graph Pad Prism software.

A further test has as its target T2, P. aeruginosa LRS (Pseudomonas aeruginosa, UniProt Q9HX33).
T2 construct: made in house
Described as above. It is filed as biochemical. As to conditions: 3H leucine incorporation. The procedure:
as §1, §2, §3

Test [1] concerns E. coli ATCC 25922. In words: MICs in Muller Hinton Broth and pooled human urine. It is filed as cell-based. The note with it: Escherichia coli, ATCC25922. As for the experimental part: (§4) In short, bacterial cultures were streaked on Muller Hinton Agar plates and incubated at 35±2° C. for about 18 to 20 hours. Following day colony suspension was prepared in saline and adjusted to 0.5 McFarland using Densitometer. This culture was further diluted 100 fold in Muller Hinton Broth or M9 minimal media or pooled human urine and used for MIC determination. The test compounds were prepared in dimthylesulfoxide (DMSO) at concentration of 1 mg/mL, and diluted to 32 μg/mL in respective media. Further two fold serial dilution were prepared in 96 well microtiter plates. 50 μL of diluted cultures were added to all wells and incubated at 35±2° C. for about 16 to 20 hours.
(Test Example 4) MICs in Human Urine Against E. coli and K. pneumonia
Many antibacterial compounds like fluroquinolones loose activity in human urine at acidic pH (acidic urine promotes rigorous bacterial growth). MICs were performed using CLSI guidelines (2011) against E. coli 25922 in Muller Hinton Broth (MHB) and pooled human urine.

Another test deals with P. aeruginosa. The test can be described thus: Bacterial susceptibility testing (MIC, CLSI microdilution). The note with it: Pseudomonas aeruginosa, strain not stated, read-out: MIC against P. aeruginosa. It is filed as cell-based. The procedure:
(§5) (Test Example 2) Method of Testing Susceptibility of Bacterial [MICs]
(§6) Minimum inhibitory concentration (MIC) were determined as recommended by the Clinical and Laboratory Standards Institute (CLSI) in 2010 (M100-520), in 2011 (M100-521), 2012 (M100-522) and in 2013 (M100-523) with minor modifications.
as §4

In test [2] the test system is E. coli ATCC 25922. Described as above. It is filed as cell-based. The note with it: Escherichia coli, ATCC25922. The procedure:
as §5, §6, §4

The test system of another test is K. pneumoniae ATCC 13883. Described as above. It is filed as cell-based. As to conditions: Klebsiella pneumoniae, ATCC13883. The procedure:
as §5, §6, §4

A further test deals with P. aeruginosa PAO1. The test can be described thus: In vivo efficacy in urinary tract infection (UTI) ascending model. Further details: species or system Mouse. As to conditions: 60 mg/kg body weight twice daily for 3 days, 4th day of infection. The procedure:
(Test Example 3a) In Vivo Efficacy in Urinary Tract Infection (UTI) Model Mouse P. aeruginosa UTI ascending model was used. All animals were infected with P. aeruginosa PAO1 by intra-urethral route. Randomization was done 18 hours post infection before starting treatment. Therapy was initiated 18 hours post infection. Animals were treated with 30 mg/kg and 60 mg/kg body weight of test compounds twice daily for 3 days. Animals were sacrificed and cfu loads in kidney and bladder were detected by serial dilution platting on drug free TSA plates on day 4.

Test [3] relates to P. aeruginosa PAO1 (parent, MexAB del, MexAB over expression). In words: MICs against Pseudomonas efflux pump mutants. It is filed as cell-based. The procedure:
as §4
(Test Example 5) MICs Against Pseudomonas Efflux Pump Mutants
Multidrug-resistant (MDR) P. aeruginosa isolated from nosocomial infections in intensive care units (ICUs) are often related to altered regulation of the specific efflux pumps and porins in P. aeruginosa strains. Tested compounds that show similar activity against efflux pump overproducers and lab strains can be predictive of activity in nosocomial patients infected with MDR strains. To identify such compounds we have determined MICs against P. aeruginosa PAO1 against Efflux deleted and overproducer strains.

For the next test, the system named is P. aeruginosa PAO-1. The test can be described thus: In vivo efficacy in P. aeruginosa PAO1 murine lung infection model. The note with it: subcutaneous 75 mg/kg twice daily. As for the experimental part: (Test Example 3c) In Vivo Efficacy in P. aeruginosa PAO1 Murine Lung Infection Model Overnight grown culture of P. aeruginosa PAO-1 on TSA agar was inoculated in Brain heart infusion broth (BHI, DIFCO) and grown in a shaker incubator with shaking at 110 rpm at 35±2° C. overnight. The culture was subcultured in 50 mL of BHI and incubated again at 110 rpm at 35±2° C. on a shaker incubator till the optical density of the culture reaches 0.5-0.7 units. For infection, animals were weighed, randomized and anesthetized by giving isofluorane. Under anesthesia the animals were infected with 50 μL of the inoculum prepared as above by intranasal route. The test compounds were administered at 75 mg/kg body weight by subcutaneous route after 1 hour and 6 hours post infection. Animals were euthanized, lungs were removed aseptically and homogenized in PBS (3 mL) and serial dilutions plated on TSA plates 24 hours post infection.

The mark [4] stands for this setting: Muller Hinton Broth, read-out: E. coli ATCC 25922 MIC (μg/mL) MHB.
[5] abbreviates: pooled human urine pH 5.5, read-out: E. coli ATCC 25922 MIC (μg/mL) Urine pH 5.5.
Where [6] appears, read: PAO1, read-out: MIC (μg/mL) P. aeruginosa PAO1 MexAB del.
The mark [7] stands for this setting: PAO1, read-out: MIC (μg/mL) P. aeruginosa PAO1 MexAB over expression.
Where [8] appears, read: PAO1, read-out: MIC (μg/mL) P. aeruginosa PAO1 Parent.

The structures appear in SMILES notation. Read-outs that look alike come from different tables or passages of the source. Some results are limits rather than exact numbers.

T2 sequence (Q9HX33 whole entry): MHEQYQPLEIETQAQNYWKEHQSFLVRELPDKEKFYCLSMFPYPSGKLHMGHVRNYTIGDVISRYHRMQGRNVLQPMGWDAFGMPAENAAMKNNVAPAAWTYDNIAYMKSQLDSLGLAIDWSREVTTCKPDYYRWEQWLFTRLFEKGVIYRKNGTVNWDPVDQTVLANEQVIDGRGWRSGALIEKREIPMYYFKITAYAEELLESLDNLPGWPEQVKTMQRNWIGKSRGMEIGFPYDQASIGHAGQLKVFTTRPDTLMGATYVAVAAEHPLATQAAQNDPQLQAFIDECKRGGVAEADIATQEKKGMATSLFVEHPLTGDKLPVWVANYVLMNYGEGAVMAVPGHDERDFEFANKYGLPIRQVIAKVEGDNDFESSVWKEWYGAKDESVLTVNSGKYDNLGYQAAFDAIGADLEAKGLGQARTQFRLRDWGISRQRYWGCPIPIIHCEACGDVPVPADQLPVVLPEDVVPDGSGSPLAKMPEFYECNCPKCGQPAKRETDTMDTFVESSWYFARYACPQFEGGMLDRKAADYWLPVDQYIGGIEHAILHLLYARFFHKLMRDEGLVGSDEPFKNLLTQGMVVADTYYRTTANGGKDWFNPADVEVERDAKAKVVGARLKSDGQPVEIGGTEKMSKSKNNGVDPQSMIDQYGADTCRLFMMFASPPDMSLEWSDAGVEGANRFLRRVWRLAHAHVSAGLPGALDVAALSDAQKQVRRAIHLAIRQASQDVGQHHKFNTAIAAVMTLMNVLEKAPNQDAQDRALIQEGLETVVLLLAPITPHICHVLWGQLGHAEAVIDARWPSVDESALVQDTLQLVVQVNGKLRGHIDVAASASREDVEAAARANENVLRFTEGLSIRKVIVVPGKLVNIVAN
T1 sequence (P07813 whole entry): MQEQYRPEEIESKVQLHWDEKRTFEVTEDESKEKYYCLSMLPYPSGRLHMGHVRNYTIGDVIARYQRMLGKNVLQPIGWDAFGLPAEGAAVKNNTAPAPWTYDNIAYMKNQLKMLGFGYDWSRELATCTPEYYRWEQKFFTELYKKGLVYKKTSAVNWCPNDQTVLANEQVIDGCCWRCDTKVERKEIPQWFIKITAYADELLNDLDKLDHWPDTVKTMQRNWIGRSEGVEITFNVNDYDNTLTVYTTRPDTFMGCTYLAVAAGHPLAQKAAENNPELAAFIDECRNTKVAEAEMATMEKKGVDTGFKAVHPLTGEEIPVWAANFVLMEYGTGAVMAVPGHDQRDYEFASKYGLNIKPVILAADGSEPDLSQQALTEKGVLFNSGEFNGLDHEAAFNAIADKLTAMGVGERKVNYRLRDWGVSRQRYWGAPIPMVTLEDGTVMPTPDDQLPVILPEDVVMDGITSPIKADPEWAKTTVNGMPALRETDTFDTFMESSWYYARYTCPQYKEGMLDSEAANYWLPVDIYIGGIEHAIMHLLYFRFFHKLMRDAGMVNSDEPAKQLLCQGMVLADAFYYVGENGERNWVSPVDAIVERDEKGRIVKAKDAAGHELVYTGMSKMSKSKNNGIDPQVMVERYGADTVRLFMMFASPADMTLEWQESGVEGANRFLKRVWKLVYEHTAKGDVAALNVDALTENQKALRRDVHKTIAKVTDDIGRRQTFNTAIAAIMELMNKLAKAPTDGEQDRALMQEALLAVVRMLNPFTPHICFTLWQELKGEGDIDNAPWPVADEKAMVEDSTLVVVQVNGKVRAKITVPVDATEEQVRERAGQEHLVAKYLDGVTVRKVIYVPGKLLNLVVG

Turning to `Cl.NC[C@H]1OB(O)c2ccc3c(c21)OCO3` (single isomer, unassigned) [Compound 6, hydrochloride], the IC50 – broadly, the midpoint of a concentration-inhibition curve – at E. coli LRS is less than 120 nM; on P. aeruginosa LRS, less than 0.12 µM.

`Cl.NC[C@H]1OB(O)c2c1ccc1c2OCO1` (single isomer, unassigned) [Compound 10, hydrochloride]: the IC50 against E. coli LRS amounted to 380 nM; against P. aeruginosa LRS, 0.62 µM.

Consider `Cl.NC[C@H]1OB(O)c2c1ccc1c2OCO1` (single isomer, unassigned) [Compound 10], for which the MIC was determined as 2 µg/mL in the test on E. coli ATCC 25922 [1] (setting [4]); 4 µg/mL in the test with E. coli ATCC 25922 [1] (setting [5]); 1 µg/mL in the test with P. aeruginosa; 2 µg/mL with E. coli ATCC 25922 [2]; 0.5 µg/mL against K. pneumoniae ATCC 13883; 1 µg/mL in [3] (setting [6]). Besides, the MIC in test [3] (setting [7]) and in [3] (setting [8]) was 1 µg/mL in each case. For the same compound, in the test with P. aeruginosa PAO1 (bladder), the “log reduction from the untreated control in bladder counts” value was 3.83 log. Also, in the test on P. aeruginosa PAO1 (kidney), the “log reduction from the untreated control in kidney counts” value worked out at 4.18 log. For the same compound, the “log reduction in cfu from 24 hours untreated control” value in the test on P. aeruginosa PAO-1 was determined as 3.53 log. Further, the “log reduction in cfu's from baseline” value with P. aeruginosa PAO-1 is on record as 2.07 log.

Take `Cl.NCC1OB(O)c2cc3c(cc21)OCO3` (stereo not shown) [Compound 1, 3-(aminomethyl)[1,3]dioxolo[4,5-f][2,1]benzoxaborol-1(3H)-ol hydrochloride]: the MIC against E. coli ATCC 25922 [2] and against K. pneumoniae ATCC 13883 was 4 µg/mL in each case. Besides, the concentration for half-maximal inhibition (IC50) was 1400 nM against E. coli LRS and greater than 10 µM against P. aeruginosa LRS.

Regarding `Cl.NCC1OB(O)c2cc3c(cc21)OCCO3` (stereo not shown) [Compound 2, 3-(aminomethyl)-6,7-dihydro[1,2]oxaborolo[3,4-g][1,4]benzodioxin-1(3H)-ol hydrochloride], the figures for the MIC in the test on E. coli ATCC 25922 [2] and with K. pneumoniae ATCC 13883 were 4 µg/mL and 8 µg/mL, respectively. Also, the IC50 was 3350 nM against E. coli LRS and greater than 10 µM on P. aeruginosa LRS.

As to `Cl.NCC1OB(O)c2c1ccc1c2CCC1` (stereo not shown) [Compound 3, 3-(aminomethyl)-3,6,7,8-tetrahydro-1H-indeno[4,5-c][1,2]oxaborol-1-ol hydrochloride], the MIC against E. coli ATCC 25922 [2] and against K. pneumoniae ATCC 13883 was 1 µg/mL in each case. Moreover, the concentration for half-maximal inhibition (IC50) came out at 2500 nM against E. coli LRS and 2.2 µM against P. aeruginosa LRS.

Turning to `Cl.NCC1OB(O)c2c1ccc1c2CCCC1` (stereo not shown) [Compound 4, 3-(Aminomethyl)-6,7,8,9-tetrahydronaphtho[1,2-c][1,2]oxaborol-1(3H)-ol hydrochloride], the MIC worked out at 8 µg/mL in the test on E. coli ATCC 25922 [2] and 16 µg/mL in the test with K. pneumoniae ATCC 13883. Further, the IC50 on E. coli LRS came to 4500 nM; on P. aeruginosa LRS it was 9.5 µM.

As to `Cl.NCC1OB(O)c2ccc3c(c21)OCCO3` (stereo not shown) [Compound 7, 9-(aminomethyl)-2,3-dihydro[1,2]oxaborolo[4,3-f][1,4]benzodioxin-7(9H)-ol hydrochloride], the MIC is 8 µg/mL in the test with E. coli ATCC 25922 [2] and 16 µg/mL against K. pneumoniae ATCC 13883. Further, the IC50 against E. coli LRS was determined as 800 nM; on P. aeruginosa LRS, 0.6 µM.

Consider `Cl.NCC1OB(O)c2c1ccc1c2OCCO1` (stereo not shown) [Compound 8, 3-(aminomethyl)-7,8-dihydro[1,2]oxaborolo[3,4-f][1,4]benzodioxin-1(3H)-ol hydrochloride], for which the MIC was determined as 8 µg/mL in the test with E. coli ATCC 25922 [1] (setting [4]); 16 µg/mL in the test on E. coli ATCC 25922 [1] (setting [5]); 4 µg/mL with P. aeruginosa; 4 µg/mL against E. coli ATCC 25922 [2]; 4 µg/mL with K. pneumoniae ATCC 13883; 4 µg/mL in test [3] (setting [6]). Further, the values for the MIC in test [3] (setting [7]) and in test [3] (setting [8]) were 4 µg/mL and 2 µg/mL, respectively. Also, the IC50 at E. coli LRS is 2100 nM; on P. aeruginosa LRS, 3.2 µM.

As for `Cl.NCC1OB(O)c2c1ccc1c2OCO1` (stereo not shown) [Compound 9, 3-(aminomethyl)[1,3]dioxolo[4,5-g][2,1]benzoxaborol-1(3H)-ol; hydrochloride], the MIC with E. coli ATCC 25922 [1] (setting [4]) was 8 µg/mL; in the test on E. coli ATCC 25922 [1] (setting [5]), 8 µg/mL; in the test on P. aeruginosa, 2 µg/mL; with E. coli ATCC 25922 [2] it was 2 µg/mL; against K. pneumoniae ATCC 13883, 2 µg/mL; in [3] (setting [6]), 2 µg/mL. In addition, the figures for the MIC in test [3] (setting [7]) and in [3] (setting [8]) were 4 µg/mL and 2 µg/mL, respectively. Also, the half-inhibitory concentration (IC50) at E. coli LRS stood at 1700 nM; against P. aeruginosa LRS, 2.7 µM.

As to `Cl.NCC1OB(O)c2cc3c(cc21)CCO3` (stereo not shown) [Compound 11, 3-(aminomethyl)-5,6-dihydrofuro[3,2-f][2,1]benzoxaborol-1(3H)-ol hydrochloride], the MIC against E. coli ATCC 25922 [2] and in the test on K. pneumoniae ATCC 13883 was 4 µg/mL in each case. The concentration for half-maximal inhibition (IC50) at E. coli LRS is 2900 nM; against P. aeruginosa LRS, greater than 10 µM.

For `Cl.NCC1OB(O)c2cc3c(cc21)OCC3` (stereo not shown) [Compound 12, 3-(aminomethyl)-6,7-dihydrofuro[2,3-f][2,1]benzoxaborol-1(3H)-ol hydrochloride], the MIC in the test with E. coli ATCC 25922 [2] came to 8 µg/mL; against K. pneumoniae ATCC 13883 it was 16 µg/mL. Besides, the IC50 is 2800 nM on E. coli LRS and greater than 10 µM on P. aeruginosa LRS.
